Measured values: PubChem BioAssay (NCI)
Several values for one entry are separate records, joined by “and”; a condition that tells them apart may be missing. Identical values can stand only once.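 Assay format: 96-well plates, 48-hour exposure. GI50 is the concentration that inhibits growth by half. The concentration for full growth arrest is given as TGI.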

Columns and labels:
Test in all cases: NCI-60 cell line screen, 48 h
SF-295 CNS = tested on: SF-295 CNS
KM12 colon = tested on: KM12 colon
SR leukemia = tested on: SR leukemia
SNB-19 CNS = tested on: SNB-19 CNS
HCT-15 colon = tested on: HCT-15 colon
LOX IMVI melanoma = tested on: LOX IMVI melanoma
HS 578T breast = tested on: HS 578T breast
MOLT-4 leukemia = tested on: MOLT-4 leukemia
BT-549 breast = tested on: BT-549 breast
U251 CNS = tested on: U251 CNS

SMILES	GI50 (SF-295 CNS) [µM]	TGI (SF-295 CNS) [µM]	GI50 (KM12 colon) [µM]	TGI (KM12 colon) [µM]	GI50 (SR leukemia) [µM]	TGI (SR leukemia) [µM]	GI50 (SNB-19 CNS)	TGI (SNB-19 CNS) [µM]	GI50 (HCT-15 colon) [µM]	TGI (HCT-15 colon) [µM]	GI50 (LOX IMVI melanoma)	TGI (LOX IMVI melanoma) [µM]	GI50 (HS 578T breast)	TGI (HS 578T breast) [µM]	GI50 (MOLT-4 leukemia) [µM]	TGI (MOLT-4 leukemia) [µM]	GI50 (BT-549 breast) [µM]	TGI (BT-549 breast) [µM]	GI50 (U251 CNS)	TGI (U251 CNS) [µM]
CC1(C)OC[C@@H]([C@@]2(CO[Si](C)(C)C(C)(C)C)CC=CC(=O)O2)O1	19.6	42	31.1	> 100	19	59.9	22.7 µM	68.9	34.7	> 100	28.3 µM	> 100	30.4 µM	89.4	23.7	> 100	24.1	47.8	31.2 µM	> 100
OC(C1=C/C(=C\c2ccncc2)c2ccccc21)c1ccncc1 (stereo not drawn)		31.4		35.1		29.1		69.2		> 63.5		32		> 54.1		23.9		57.9		31.4
C[C@@H]1O[C@@H](O[C@@H]2[C@@H](O)[C@H](OCCc3ccc(O)c(O)c3)O[C@H](COC(=O)/C=C/c3ccc(O)c(O)c3)[C@H]2O)[C@H](O)[C@H](O)[C@H]1O	> 100	> 100	> 100	> 100	41.3	> 100	> 100 µM	> 100	> 100	> 100	18.3 µM	34.4	> 100 µM	> 100	> 100	> 100	12.8	30	49.2 µM	> 100
S=c1nc(Oc2ccc(Cl)c(Cl)c2)[nH]c(=S)[nH]1		> 100		33.6		> 100		> 100		> 100		37.8		> 100		> 69.6		> 100		99.4
N#CC1=C(N)N=C(N2CCCCC2)C(C#N)C12Nc1ccccc1S2 (stereo not drawn)	37.7	> 100	25.6	> 100	> 100	> 100	41 µM	> 100	22	> 100	20.7 µM	51.8			> 100	> 100	33.3	> 100	17 µM	> 100
C=C(Cl)COC(=O)Nc1cccc(Cl)c1		96.2		> 100		> 100		> 100		> 100		> 100		> 100		> 100		87.2		> 100
Cc1ccccc1CN1CC2=C(CCN(Cc3ccccc3)C2=O)N2CCN=C12		> 60.4		> 100		> 100		> 100		> 100		> 100		> 100		> 100		> 100		> 100
N#CC1=C(N)NC(=S)NC12Nc1ccccc1O2 (stereo not drawn)	38.4	> 100	27.1	> 100	0.597	> 100	23.9 µM	> 100	21.6	> 100	20.2 µM	50.4	19.1 µM	60.2	3.72	> 100	48.2	> 100	28.2 µM	> 100
CC1(C)NCCC[C@]2(C)[C@H]3C=CC4=C5C[C@](C)(CO)CC[C@]5(C)CC[C@@]4(C)[C@]3(C)CC[C@@H]12	2	4.04	6.09	20.3	2.42	7.17	11.6 µM	25.3	4.21	16.4	2.49 µM	6.76	3.2 µM	13.2	2.46	6.8	3.46	12.7	4.17 µM	15.9
C=C1C[C@@H]2C/C=C/C(=O)C/C(C)=C\C=C\C(=O)O[C@H](C=O)C/C(C)=C/[C@H](C1)O2	3.26	43.2	1.17	12.2	1.18	6.77	4.34 µM	24.8	0.485	16.2	0.711 µM	13.5	4.23 µM	> 65.1	2.72	13.7	0.315	0.94	0.711 µM	14.1
COc1ccc(/C=C\c2cc(OC)c(OC)c(OC)c2)cc1OC(=O)C(N)CCC(=O)O (stereo not drawn)			0.00156	0.0073	0.000532		0.000828 µM and 0.000281 µM and < 0.0001 µM	> 100			0.000605 µM and 0.000284 µM and < 0.0001 µM	> 33.9	0.000788 µM and 0.00046 µM		0.00244			0.00299	0.000543 µM and 0.000132 µM	
c1cc2c(cc1C(N1CCNCC1)N1CCNCC1)OCO2		> 100		> 100		> 100		> 100		> 100		> 100		> 100				> 100		> 100
C=C1CC[C@@]2(C#N)[C@H]3[C@H](CC[C@@H]2C)[C@@H](C)C[C@@H](CC(C)(C)C#N)[C@H]13	0.171	1.68	0.471	18.9	1.57	40.3	10.1 µM	70.1	0.604	23.1	0.413 µM	14.5	0.637 µM	55	3.02	72.1	1.23	18.8	2.86 µM	29.8
O=[N+]([O-])c1ccc(-c2nc(N(CCO)CCO)c3ccccc3n2)o1	0.192	1.03	0.216	0.862	0.0881		0.229 µM	1.41	0.176	1.71	0.269 µM	1.64	0.346 µM	1.99	0.508	> 38.9	0.174	0.758	0.229 µM	1.34
Cc1cccc(C)c1NC(=O)/C(Cl)=C(/Cl)C(=O)O		> 56.1		23		> 57.1		> 70.1		34.8		34.3		83.2		27.5		31.5		47.5
C[C@]12CC[C@H](O)CC1=CC[C@@H]1C2CC[C@]2(C)c3nn(-c4ccc(F)cc4)nc3CC12 (stereo partly drawn)		> 100		> 100		> 100		> 100						> 100		> 100		> 100		> 100

SMILES	GI50 (SF-295 CNS) [µM]	TGI (SF-295 CNS) [µM]	GI50 (KM12 colon) [µM]	TGI (KM12 colon) [µM]	GI50 (SR leukemia) [µM]	TGI (SR leukemia) [µM]	GI50 (SNB-19 CNS)	TGI (SNB-19 CNS) [µM]	GI50 (HCT-15 colon) [µM]	TGI (HCT-15 colon) [µM]	GI50 (LOX IMVI melanoma)	TGI (LOX IMVI melanoma) [µM]	GI50 (HS 578T breast)	TGI (HS 578T breast) [µM]	GI50 (MOLT-4 leukemia) [µM]	TGI (MOLT-4 leukemia) [µM]	GI50 (BT-549 breast) [µM]	TGI (BT-549 breast) [µM]	GI50 (U251 CNS)	TGI (U251 CNS) [µM]
COc1c(C)c2c(c(O)c1C/C=C(\C)CCC(=O)OCCN1CCOCC1)C(=O)OC2	0.323	> 100	0.317	> 100	0.24	32.6	0.325 µM	> 100	0.0928	> 100	0.125 µM	> 100	7 µM	> 100	0.302	> 100	0.426	> 100	0.11 µM	> 100
COc1cc(Cl)cc(-c2nn(C(=O)NCCN3CCN(C)CC3)cc2-c2ccncc2)c1	7.73	46.6	20.5	79.6	29.8	> 100	7.93 µM	> 100	17.2	69.9	18 µM	46.2	4.96 µM	32.9	29.4	> 100	3.37	18.6	15.1 µM	> 100
CC1(CO)OC1COCc1ccccc1 (stereo not drawn)		> 100		> 100		> 100		> 100		> 100		> 100				> 100				> 100
N=C1c2nc3n(c2C(=O)c2nc4n(c21)CCCC4)CCCC3	1.74	3.4	16.6	> 100	13.4	> 79.3	2.89 µM	12.5	2.07	6.62	0.406 µM	2.15	2.18 µM	6.68	47.2	> 100	2.22	4.94	5.75 µM	48.7
CN(C)CCCN=C(N)N		> 100		> 100		> 100		> 100		> 100		> 100		> 100		> 100		> 100		> 100
COC(=O)COc1ccc(/C=C2\N=C(c3ccccc3)N(c3cc(C(F)(F)F)ccc3Cl)C2=O)cc1	> 100	> 100	42.3	> 100	19.3	54.9	83.8 µM	> 100	94.6	> 100	21.8 µM	53.3	83.7 µM	> 100	28.6	69.1	28.1	94.2	46.4 µM	> 100
Nc1nc(Nc2ccc3c(c2)CC[C@@H](N2CCCC2)CC3)nn1-c1cc2c(nn1)-c1ccccc1CCC2	1.88	3.51	1.83	3.71	0.441	2.69	1.83 µM	3.45	0.798	2.26	1.5 µM	2.92	1.79 µM	4.86	0.82	3.63	1.6	3.36		
c1ccc2[nH]c(SSc3nc4ncncc4[nH]3)nc2c1	0.457		3.85	> 100	0.551	> 100	64.5 µM	> 100	3.25	> 100	0.279 µM	> 44.6	8.92 µM	> 100	0.486	> 100	2.89	> 100	8.63 µM	> 100
COC1/C=C\C=C(/C)C(=O)Nc2cc3nc4ccc(Br)cc4oc-3c(c2=O)CC(C)CC(OC)C(O)C(C)/C=C(\C)C1OC(N)=O (stereo not drawn)		25.8		13.4	0.00272	0.634		29.4	0.00583	6.99	0.00271 µM	0.959		22.9	0.0031	0.466	10.1	22.6		28.7
CCN1C(=O)N(CC)C2C1NN=c1s/c(=C3\C(=O)N(CC(C)C)c4ccccc43)c(=O)n12 (stereo not drawn)	0.542	11.4	0.418	> 100	0.522	> 100	1.89 µM	39.2	0.438	> 100	0.811 µM	> 100	0.665 µM	23.9	0.974	> 100	2.45	> 100	0.548 µM	27.4
Cc1ncc([N+](=O)[O-])n1CCNS(=O)(=O)CCCn1ccnc1[N+](=O)[O-]		> 100		> 100		> 100				> 100		> 100		> 100		> 100		> 100		> 100
CC(=O)OCSc1ncnc2c1ncn2CN1CCOCC1		> 100		> 100		> 100		> 100		> 100		76.6				> 100				> 100
CC1(C)COCN1COC1CCCCC1		> 100		> 100		44		> 100		> 100				> 100		83.9		> 100		> 100
c1nc2cscc2c2cscc12		> 100		> 100		> 100		> 100		> 100		> 100				> 100				> 100
FC(F)(F)c1cccc(COCCN2CCN(Cc3cccc(C(F)(F)F)c3)CC2)c1		37.5		35.8		> 100		29.4		31.5				38.2		41.9		29.6		34.5
